The target of this assay is human neurokinin-1-receptor (NK1R) (Homo sapiens, UniProt P25103). Put plainly: biochemical. In kind it is binding. The settings on record: for IC50: displacement of 125I-substance P; for inhibition at 1 µM / inhibition at 0.3 µM: 1 h; for inhibition at 1 µM: read-out: % @ 1 μM (in column IC50 @ NKIR); for inhibition at 0.3 µM: read-out: % @ 300 nM (in column IC50 @ NKIR). The protocol:
To express the cloned human neurokinin-1-receptor (NK1R) transiently in COS, the cDNA for the human NK1R was cloned into the expression vector pCDM9 which was derived from pCDM8 (INVITROGEN) by inserting the ampicillin resistance gene (nucleotide 1973 to 2964 from BLUESCRIPT SK+ (trademark, […], La Jolla, Calif., USA)) into the Sac II site. Transfection of 20 ug of the plasmid DNA into 10 million COS cells was achieved by electroporation in 800 μl of transfection buffer (135 mM NaCl, 1.2 mM CaCl2, 1.2 mM MgCl2, 2.4 mM K2 HPO4, 0.6 mM KH2 PO4, 10 mM glucose, 10 mM N-2-hydroxyethyl-piperazine-N'-2-ethane sulphonic acid (HEPES) pH 7.4) at 260 V and 950 μF using the IBI GENEZAPPER (trademark IBI, New Haven, Conn., USA). The cells were incubated in 10% fetal calf serum, 2 mM glutamine, 100 U/ml penicillin-streptomycin, and 90% DMEM media (GIBCO, Grand Island, N.Y., USA) in 5% CO2 at 37° C. for three days before the binding assay.
To establish a stable cell line expressing cloned human NK1R, the cDNA was subcloned into the vector pRcCMV (INVITROGEN). Transfection of 20 μg of the plasmid DNA into CHO cells was achieved by electroporation in 800 μl of transfection buffer supplemented with 0.625 mg/ml Herring sperm DNA at 300 V and 950 μF using the IBI GENEZAPPER (IBI). The transfected cells were incubated in CHO media [10% fetal calf serum, 100 U/ml penicillin-streptomycin, 2 mM glutamine, 1/500 hypoxanthine-thymidine (ATCC), 90% IMDM media (JRH BIOSCIENCES, Lenexa, Kans., USA), 0.7 mg/ml G418 (GIBCO)] in 5% CO2 at 37° C. until colonies were visible. Each colony was separated and propagated. The cell clone with the highest number of human NK1R was selected for subsequent applications such as drug screening.
The binding assay of human NK1R expressed in either COS or CHO cells is based on the use of ^125 I-substance P (^125 I-SP, from DU PONT, Boston, Mass.) as a radioactively labeled ligand which competes with unlabeled substance P or any other ligand for binding to the human NK1R. […] The tubes were incubated at 4° C. or at room temperature for 1 hour with gentle shaking. The bound radioactivity was separated from unbound radioactivity by GF/C filter (BRANDEL, Gaithersburg, Md.) which was pre-wetted with 0.1% polyethylenimine. The filter was washed with 3 ml of wash buffer (50 mM Tris pH 7.5, 5 mM MnCl2, 50 mM NaCl) three times and its radioactivity was determined by gamma counter.
On the technique in general: Loss of bound radioactivity is the signal in a displacement assay; it reports binding, not function.

Where [1] appears, read: human NK1R in COS or CHO cells, read-out: IC50 @ NKIR.
Setting [2] is: IC50 @ NKIR, human NK1R in COS or CHO cells.

Structures can show the parent of a compound that is named as a salt. Where two headings read alike, the source gives them in different places. A value given as a limit tells only on which side of the number the result lay.

Chain of human neurokinin-1-receptor (NK1R) (P25103 whole entry): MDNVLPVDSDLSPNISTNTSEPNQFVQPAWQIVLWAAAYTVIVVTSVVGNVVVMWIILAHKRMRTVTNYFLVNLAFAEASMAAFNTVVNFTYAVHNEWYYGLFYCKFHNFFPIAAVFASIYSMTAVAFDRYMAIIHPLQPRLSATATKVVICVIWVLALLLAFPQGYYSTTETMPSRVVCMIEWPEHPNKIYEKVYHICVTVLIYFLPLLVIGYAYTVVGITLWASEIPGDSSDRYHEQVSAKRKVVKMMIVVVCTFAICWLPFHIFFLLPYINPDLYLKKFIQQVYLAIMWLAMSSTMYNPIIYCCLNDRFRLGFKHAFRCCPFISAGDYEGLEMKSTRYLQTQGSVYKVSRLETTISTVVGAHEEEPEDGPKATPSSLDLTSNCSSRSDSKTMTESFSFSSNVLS

For the compound `COC(=O)CCN1CCC[C@H](OCc2cc(C(F)(F)F)cc(C(F)(F)F)c2)[C@@H]1c1ccccc1` (relative stereo) [Example 29, cis-3-((3,5-Bis(trifluoromethyl)phenyl)methyloxy)-1-(2-carbomethoxy)ethyl-2-phenylpiperidine], the IC50 (as a rule, the concentration needed to halve the response being measured) under setting [1] stood at 40 nM.

Regarding `COC(=O)CCCN1CCC[C@H](OCc2cc(C(F)(F)F)cc(C(F)(F)F)c2)[C@@H]1c1ccccc1` (relative stereo) [Example 31, cis-3-((3,5Bis(trifluoromethyl)phenyl)methyloxy)-1-(3-carbomethoxy)propyl-2-phenylpiperidine], the IC50 under setting [1] is 100 nM. On to `c1ccc(CO[C@H]2CCCN[C@H]2c2ccccc2)cc1` (relative stereo) [Example 34, cis-2-Phenyl-3-(phenylmethyloxy)piperidine oxalate salt], for which the inhibition at 1 µM worked out at 53%. `CC(C)(C)c1cc(CO[C@H]2CCCN[C@H]2c2ccccc2)cc(C(C)(C)C)c1` (relative stereo) [Example 35, cis-3-((3,5.-Di-t-butylphenyl)methyloxy)-2-phenylpiperidine oxalate salt]: the IC50 under setting [1] stood at 100 nM. `NC(=O)C(=O)N1CCC[C@H](OCc2cc(C(F)(F)F)cc(C(F)(F)F)c2)[C@@H]1c1ccccc1` (relative stereo) [Example 38]: the IC50 under setting [1] came out at 150 nM. On to `NC(CN1CCC[C@H](OCc2cc(C(F)(F)F)cc(C(F)(F)F)c2)[C@@H]1c1ccccc1)=NO` (relative stereo) [Example 39], for which the IC50 under setting [1] is 0.9 nM. Turning to `N#CCN1CCC[C@H](OCc2cc(C(F)(F)F)cc(C(F)(F)F)c2)[C@@H]1c1ccccc1` (relative stereo) [Example 40, cis-3 ((3,5Bis(trifluoromethyl)phenyl)methyloxy)-1-cyanomethyl-2-phenylpiperidinium hydrochloride], under setting [1], the IC50 amounted to 15 nM. For `FC(F)(F)c1cc(CO[C@H]2CCCN(Cc3cc(C(F)(F)F)cc(C(F)(F)F)c3)[C@H]2c2ccccc2)cc(C(F)(F)F)c1` (relative stereo) [Example 42], the inhibition at 0.3 µM (300 nM, human NK1R in COS or CHO cells, 125I-substance P) worked out at 45%. Take `COc1ccc([N+](=O)[O-])cc1CO[C@H]1CCCN[C@H]1c1ccccc1` (relative stereo) [Example 45, cis-3-((2-Methoxy-5-nitrophenyl)methyloxy)-2-phenylpiperidine hydrochloride salt]: the inhibition at 0.3 µM stood at 42%. With `Clc1cc(Cl)cc(CO[C@H]2CCCN[C@H]2c2ccccc2)c1` (relative stereo) [Example 47, cis-3-((3,5-Dichlorophenyl)methyloxy)-2-phenylpiperidine hydrochloride salt], under setting [1], the IC50 turned out to be 2 nM. `Cc1cc(C)cc(CO[C@H]2CN(C)[C@H]2c2ccccc2)c1` (relative stereo) [Example 51, cis-3-((3,5-Dimethylphenyl)methyloxy)-1-methyl-2-phenyl azetidine oxalate salt]: the inhibition at 1 µM is 40%. In the case of `N#Cc1cccc(CO[C@H]2CCCN[C@H]2c2ccccc2)c1` (relative stereo) [Example 53, cis-3((3-cyanophenyl)methyloxy)-2-phenylpiperidine hydrochloride salt], the inhibition at 0.3 µM was 40%. As for `COC(=O)C(C)N1CCCC(OCc2cc(C(F)(F)F)cc(C(F)(F)F)c2)C1c1ccccc1` (single isomer, unassigned) [Example 18], under setting [1], the IC50 was found to be 0.6 nM. On to `CC(C(N)=O)N1CCC[C@H](OCc2cc(C(F)(F)F)cc(C(F)(F)F)c2)[C@@H]1c1ccccc1` (single isomer, unassigned) [Example 19, hydrochloride], for which the IC50 under setting [1] was found to be 0.9 nM. As to `CCN(CC)C(=O)CN1CCCC(OCc2cc(C(F)(F)F)cc(C(F)(F)F)c2)C1c1ccccc1` (single isomer, unassigned) [Example 43, cis-3-((3,5-Bis(trifluoromethyl)phenyl)methyloxy-1-(N,N-diethylcarboxamido)methyl-2-phenylpiperidinium hydrochloride], the IC50 under setting [1] was determined as 1.4 nM.

Consider `FC(F)(F)c1cc(CO[C@H]2CCCN[C@H]2c2ccccc2)cc(C(F)(F)F)c1` [Example 5, (+)-cis-3((3,5-Bis(trifluoromethyl)phenyl)methyloxy)-2-phenylpiperidine hydrochloride salt], for which, under setting [1], the IC50 worked out at 1 nM. As to `CN1CCC[C@H](OCc2cc(C(F)(F)F)cc(C(F)(F)F)c2)[C@@H]1c1ccccc1` [Example 10, (+)-cis-3-((3,5-Bis(trifluoromethyl)phenyl)methyloxy)-1-methyl-2-phenylpiperidine], the IC50 under setting [1] came to 20 nM. Consider `FC(F)(F)c1cc(CO[C@H]2CCCN[C@H]2c2ccccc2)cc(C(F)(F)F)c1` [Example 11, (-)-cis-3-((3,5-Bis(trifluoromethyl)phenyl)methyloxy)-2-phenyl piperidine hydrochloride salt], for which the IC50 under setting [1] was 350 nM. The same measure, in the same setting: the figure for `C[N+]1(C)CCC[C@H](OCc2cc(C(F)(F)F)cc(C(F)(F)F)c2)[C@@H]1c1ccccc1` [Example 14, (2S,3S)-3-((3,5-Bis(trifluoromethyl)phenyl)methyloxy)-1,1-dimethyl2-phenylpiperidinium iodide] is 100 nM; for `O=CN1CCC[C@H](OCc2cc(C(F)(F)F)cc(C(F)(F)F)c2)[C@@H]1c1ccccc1` [Example 16, (2S,3S)-1-Formyl-3-((3,5-bis(trifluoromethyl)phenyl)methyloxy)-2-phenyl piperidine] it is 80 nM; for `CC1CC[C@H](OCc2cc(C(F)(F)F)cc(C(F)(F)F)c2)[C@H](c2ccccc2)N1` (stereo partly drawn) [Example 20, cis-3-(3,5-Bis(trifluoromethyl)phenyl)methyloxy-6-methyl-2-phenyl piperidinium hydrochloride] it is 2 nM.

Compound `Cc1cc(CO[C@H]2CCCN(C(=O)OC(C)(C)C)[C@H]2c2ccccc2)cc([Si](C)(C)C)c1` [Example 33] came in with an IC50 under setting [2] of more than 300 nM. In the case of `Cc1cc(I)cc(CO[C@H]2CCCN[C@H]2c2ccccc2)c1` [Example 36], the IC50 under setting [1] came to 0.5 nM. As for `Cc1cc(CO[C@H]2CCCN[C@H]2c2ccccc2)cc([Si](C)(C)C)c1` [Example 44, cis-3-((3-methyl-5-trimethylsilyl)benzyloxy)-2-phenyl piperidine], under setting [2], the IC50 was determined as 0.3 nM.

With `CC1(OCc2cc(C(F)(F)F)cc(C(F)(F)F)c2)CCCNC1c1ccccc1` (centres unmarked) [Example 48, 3-((3,5-Bis(trifluoromethyl)phenyl)methyloxy)-3-methyl-2-phenylpiperidine oxalate salt], under setting [1], the IC50 amounted to 45 nM. Take `OCC1CC[C@H](OCc2cc(C(F)(F)F)cc(C(F)(F)F)c2)[C@H](c2ccccc2)N1` (some centres unmarked) [Example 55]: under setting [1], the IC50 came out at 2 nM. Turning to `CC(C)(C)NC(=O)CN1CCC[C@H](OCc2cc(C(F)(F)F)cc(C(F)(F)F)c2)[C@@H]1c1ccccc1` [Example 56, (2S,3S)-3-((3,5-Bis(trifluoromethyl)phenyl)methyloxy-1-((N-t-butyl)carboxamidomethyl)-2-phenylpiperidinium hydrochloride], under setting [1], the IC50 stood at 25 nM.

With `O=C(CN1CCC[C@H](OCc2cc(C(F)(F)F)cc(C(F)(F)F)c2)[C@@H]1c1ccccc1)NC1CC1` [Example 57, (2S,3S)-3-((3,5-Bis(trifluoromethyl)phenyl)methyloxy)-1-((N-cyclopropyl)-2-phenylpiperidinium hydrochloride], the IC50 under setting [1] was 2.5 nM. On to “cis-3-((3,5-Bis(trifluoromethyl)phenyl)methyloxy-1-(N-benzylcarboxamido)methyl-2-phenyl piperidinium hydrochloride [Example 49]”, for which the IC50 under setting [1] was found to be 20 nM.

Source of the values: patent US5459270A, “Azacyclic compounds, processes for their preparation and pharmaceutical compositions containing them” (Merck Sharp & Dohme Limited, priority 1991, dated 1995).
